Values quoted from earlier work as cited in US11825820B2, “Poly-glutamine androgen receptor knock-in mouse models, reagents and methods” (priority 2017, dated 2023).
Read-outs that look alike come from different tables or passages of the source.

Columns and labels:
[1] = 100 mg, 250 mg vs Pioglitazone 45 mg; 28 days
NASH = conditions: 30 mg/day
[2] = tested on: patients with NASH/NAFLD scores of 3 to 8
[3] = tested on: patients with nonalcoholic steatohepatitis; conditions: 24 weeks

Molecule: COc1cccc(C(=O)COc2ccc(CC3SC(=O)[N-]C3=O)cc2)c1.[K+] (stereo not drawn) [MSCD-0602K]
- adiponectin levels vs Pioglitazone [1]: equivalent to Pioglitazone
- overall glucose control vs Pioglitazone [1]: equivalent to Pioglitazone

Molecule: CCc1ccc(CCOc2ccc(CC3SC(=O)NC3=O)cc2)nc1 (stereo not drawn) [Pioglitazone]
- side effects (NASH): weight gain, edema, bone fractures and increased risk of bladder cancer

Molecule: CSc1ccc(C(=O)/C=C/c2cc(C)c(OC(C)(C)C(=O)O)c(C)c2)cc1 [Elafibranor]
- anti-inflammatory effects ([2]; Phase IIb claims): Anti-inflammatory effects
- insulin sensitivity and glucose homeostasis ([2]; Phase IIb claims): Improved insulin sensitivity and glucose homeostasis
- markers of hepatic dysfunction, including liver enzymes ALT, AST, GGT, ALP ([2]; Phase IIb claims): Improvement in markers of hepatic dysfunction
- plasma lipids (triglyceride, LDL-C, HDL-C) ([2]; Phase IIb claims): reduction in triglyceride and LDL-C and increased HDL-C levels
- RR, Elafibranor vs placebo ([2]; Phase IIb, after withdrawal of NAS <4 patients): 1.9
- positive result, Elafibranor vs placebo ([2]; Phase IIb, after withdrawal of NAS <4 patients, placebo 12.7%, p=0.046): 22.4%
- safety profile ([2]; clinical trials, toxicology studies up to two-year carcinogenicity): good safety profile with no unwanted side effects
- statistical significance of results across the entire study population ([2]; entire study population incl. NAS <4 patients): prevented Elafibranor from having statistically significant results
- histological parameters NASH (steatosis, inflammation, fibrosis) (animal models of NASH): Beneficial effects on histological parameters NASH

Molecule: Cc1cc(F)c(C(=O)Nc2cccc(-c3nncn3C(C)C)n2)cc1-n1cnc(C2CC2)c1 [selonsertib]
- proportion of patients with a one or more stage reduction in fibrosis ([3]; 6-mg selonsertib group, 8 of 27, 95% CI 14-50): 30%
- proportion of patients with a one or more stage reduction in fibrosis ([3]; 18-mg selonsertib group, 13 of 30, 95% CI 26-63): 43%

B1: simtuzumab (antibody, chains of the INN, looked up, V domains shown)
VH: QVQLVQSGAEVKKPGASVKVSCKASGYAFTYYLIEWVRQAPGQGLEWIGVINPGSGGTNYNEKFKGRATITADKSTSTAYMELSSLRSEDTAVYFCARNWMNFDYWGQGTTVTVSS
VL: DIVMTQTPLSLSVTPGQPASISCRSSKSLLHSNGNTYLYWFLQKPGQSPQFLIYRMSNLASGVPDRFSGSGSGTDFTLKISRVEAEDVGVYYCMQHLEYPYTFGGGTKVEIK
notes: comparator group (simtuzumab-alone) in the selonsertib Phase 2 study
- proportion of patients with a one or more stage reduction in fibrosis ([3]; simtuzumab-alone group, 2 of 10, 95% CI 3-56): 20%
